Assay results published in ChEMBL document CHEMBL5291721, “A preclinical secondary pharmacology resource illuminates target-adverse drug reaction associations of marketed drugs” (Nat Commun, 2023).

Experiments:
Adenosine receptor A1 = biological target: T1, Adenosine receptor A1 (Homo sapiens, UniProt P30542)
T1 sequence (P30542 whole entry): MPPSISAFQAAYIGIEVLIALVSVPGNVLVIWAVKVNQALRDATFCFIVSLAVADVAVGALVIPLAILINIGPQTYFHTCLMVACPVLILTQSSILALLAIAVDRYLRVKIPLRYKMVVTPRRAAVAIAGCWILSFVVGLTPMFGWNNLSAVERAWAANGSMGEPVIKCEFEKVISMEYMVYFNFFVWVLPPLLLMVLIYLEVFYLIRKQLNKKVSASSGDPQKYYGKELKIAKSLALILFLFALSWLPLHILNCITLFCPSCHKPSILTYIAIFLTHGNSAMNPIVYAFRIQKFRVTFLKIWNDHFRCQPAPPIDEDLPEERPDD

[1] = biological target: T2, Muscarinic acetylcholine receptor M1 (Homo sapiens, UniProt P11229); type: functional, cell-based
T2 sequence (P11229 whole entry): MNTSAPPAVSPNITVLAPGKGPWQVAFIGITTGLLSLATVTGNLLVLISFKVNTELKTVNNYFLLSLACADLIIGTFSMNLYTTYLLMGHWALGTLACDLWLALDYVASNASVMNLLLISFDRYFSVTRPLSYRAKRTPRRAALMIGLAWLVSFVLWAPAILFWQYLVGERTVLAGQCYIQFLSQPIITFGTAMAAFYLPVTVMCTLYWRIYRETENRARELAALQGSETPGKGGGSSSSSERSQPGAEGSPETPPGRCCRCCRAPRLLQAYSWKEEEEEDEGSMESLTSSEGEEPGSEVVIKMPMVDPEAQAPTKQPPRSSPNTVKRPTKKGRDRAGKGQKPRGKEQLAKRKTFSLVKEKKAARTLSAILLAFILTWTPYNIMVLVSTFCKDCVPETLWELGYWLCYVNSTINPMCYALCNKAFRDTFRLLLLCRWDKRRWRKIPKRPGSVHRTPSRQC

Thromboxane A2 receptor = biological target: T3, Thromboxane A2 receptor (Homo sapiens, UniProt P21731); type: functional, cell-based
T3 sequence (P21731 whole entry): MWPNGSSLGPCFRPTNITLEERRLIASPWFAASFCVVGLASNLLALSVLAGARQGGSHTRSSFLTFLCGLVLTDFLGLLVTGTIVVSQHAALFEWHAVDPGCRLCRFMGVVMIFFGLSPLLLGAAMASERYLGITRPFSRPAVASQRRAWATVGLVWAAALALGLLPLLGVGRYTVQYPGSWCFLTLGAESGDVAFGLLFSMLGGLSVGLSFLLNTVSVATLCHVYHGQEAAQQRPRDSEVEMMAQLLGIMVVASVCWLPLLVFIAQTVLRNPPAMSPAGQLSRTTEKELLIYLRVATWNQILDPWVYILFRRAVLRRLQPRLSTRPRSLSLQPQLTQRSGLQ

Melanocortin receptor 4 = Melanocortin receptor 4 (Homo sapiens, UniProt P32245)
Melanocortin receptor 4, sequence (P32245 whole entry): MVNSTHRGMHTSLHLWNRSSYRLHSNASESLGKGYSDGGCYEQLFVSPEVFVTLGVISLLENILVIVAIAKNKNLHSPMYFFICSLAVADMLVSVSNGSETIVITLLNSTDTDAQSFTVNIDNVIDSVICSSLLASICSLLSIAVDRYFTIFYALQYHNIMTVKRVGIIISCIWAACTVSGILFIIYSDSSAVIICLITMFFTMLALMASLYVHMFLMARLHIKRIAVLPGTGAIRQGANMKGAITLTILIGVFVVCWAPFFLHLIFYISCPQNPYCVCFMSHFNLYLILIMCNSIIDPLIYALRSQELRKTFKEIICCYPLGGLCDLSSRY

Mu-type opioid receptor = Mu-type opioid receptor (Homo sapiens, UniProt P35372); assay: biochemical; type: functional
Mu-type opioid receptor, sequence (P35372 whole entry): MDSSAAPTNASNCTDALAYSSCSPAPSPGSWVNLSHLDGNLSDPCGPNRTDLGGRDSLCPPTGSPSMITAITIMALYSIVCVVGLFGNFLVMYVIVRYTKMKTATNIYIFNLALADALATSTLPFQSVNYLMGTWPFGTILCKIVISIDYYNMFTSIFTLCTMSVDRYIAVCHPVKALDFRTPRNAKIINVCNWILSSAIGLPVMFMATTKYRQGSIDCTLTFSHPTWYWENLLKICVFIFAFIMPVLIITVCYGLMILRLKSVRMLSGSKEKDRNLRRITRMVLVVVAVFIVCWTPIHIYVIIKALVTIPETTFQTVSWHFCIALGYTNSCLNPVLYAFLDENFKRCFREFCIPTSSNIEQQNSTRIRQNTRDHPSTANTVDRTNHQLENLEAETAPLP

[2] = biological target: Gamma-aminobutyric acid receptor subunit alpha-1/alpha-2/beta-2/gamma-2 (Homo sapiens, UniProt P14867+P18507+P47869+P47870); type: functional, cell-based
Gamma-aminobutyric acid receptor subunit alpha-1/alpha-2/beta-2/gamma-2, sequence (P14867 whole entry): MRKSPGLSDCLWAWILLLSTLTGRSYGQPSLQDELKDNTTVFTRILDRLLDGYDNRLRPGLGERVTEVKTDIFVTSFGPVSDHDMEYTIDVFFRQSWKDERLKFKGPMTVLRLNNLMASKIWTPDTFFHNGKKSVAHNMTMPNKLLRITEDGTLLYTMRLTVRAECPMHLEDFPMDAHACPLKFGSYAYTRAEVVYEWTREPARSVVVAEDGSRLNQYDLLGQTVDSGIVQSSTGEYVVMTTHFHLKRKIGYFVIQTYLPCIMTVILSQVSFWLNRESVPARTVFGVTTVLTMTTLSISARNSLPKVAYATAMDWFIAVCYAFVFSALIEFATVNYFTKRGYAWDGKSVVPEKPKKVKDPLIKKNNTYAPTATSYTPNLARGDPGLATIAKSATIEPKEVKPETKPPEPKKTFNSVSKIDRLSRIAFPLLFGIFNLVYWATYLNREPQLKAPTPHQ
Gamma-aminobutyric acid receptor subunit alpha-1/alpha-2/beta-2/gamma-2, sequence (P47870 whole entry): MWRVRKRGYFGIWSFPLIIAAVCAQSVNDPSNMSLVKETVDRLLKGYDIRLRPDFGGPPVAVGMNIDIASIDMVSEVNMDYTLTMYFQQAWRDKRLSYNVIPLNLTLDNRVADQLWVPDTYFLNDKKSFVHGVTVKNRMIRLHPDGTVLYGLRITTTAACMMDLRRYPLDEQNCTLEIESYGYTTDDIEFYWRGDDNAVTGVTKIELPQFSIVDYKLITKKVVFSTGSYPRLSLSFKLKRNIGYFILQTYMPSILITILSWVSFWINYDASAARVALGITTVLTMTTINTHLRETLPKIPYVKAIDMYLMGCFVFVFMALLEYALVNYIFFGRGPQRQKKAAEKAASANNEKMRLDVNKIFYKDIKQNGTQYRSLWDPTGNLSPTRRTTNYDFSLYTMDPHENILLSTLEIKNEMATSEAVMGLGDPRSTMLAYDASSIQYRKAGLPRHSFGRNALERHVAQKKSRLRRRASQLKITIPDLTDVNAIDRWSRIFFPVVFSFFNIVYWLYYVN
Gamma-aminobutyric acid receptor subunit alpha-1/alpha-2/beta-2/gamma-2, sequence (P18507 whole entry): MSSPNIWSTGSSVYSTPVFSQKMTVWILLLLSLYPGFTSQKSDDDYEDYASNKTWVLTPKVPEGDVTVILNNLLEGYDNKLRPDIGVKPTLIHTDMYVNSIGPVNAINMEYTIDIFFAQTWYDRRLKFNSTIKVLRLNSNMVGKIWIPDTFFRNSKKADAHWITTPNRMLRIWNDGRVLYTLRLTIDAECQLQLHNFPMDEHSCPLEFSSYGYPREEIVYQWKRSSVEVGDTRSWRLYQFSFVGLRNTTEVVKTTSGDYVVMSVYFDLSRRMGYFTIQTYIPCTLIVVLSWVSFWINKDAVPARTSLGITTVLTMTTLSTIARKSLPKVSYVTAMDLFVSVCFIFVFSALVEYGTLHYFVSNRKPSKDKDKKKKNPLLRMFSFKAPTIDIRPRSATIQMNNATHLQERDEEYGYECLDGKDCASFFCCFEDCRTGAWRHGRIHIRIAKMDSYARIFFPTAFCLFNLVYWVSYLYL
Gamma-aminobutyric acid receptor subunit alpha-1/alpha-2/beta-2/gamma-2, sequence (P47869 whole entry): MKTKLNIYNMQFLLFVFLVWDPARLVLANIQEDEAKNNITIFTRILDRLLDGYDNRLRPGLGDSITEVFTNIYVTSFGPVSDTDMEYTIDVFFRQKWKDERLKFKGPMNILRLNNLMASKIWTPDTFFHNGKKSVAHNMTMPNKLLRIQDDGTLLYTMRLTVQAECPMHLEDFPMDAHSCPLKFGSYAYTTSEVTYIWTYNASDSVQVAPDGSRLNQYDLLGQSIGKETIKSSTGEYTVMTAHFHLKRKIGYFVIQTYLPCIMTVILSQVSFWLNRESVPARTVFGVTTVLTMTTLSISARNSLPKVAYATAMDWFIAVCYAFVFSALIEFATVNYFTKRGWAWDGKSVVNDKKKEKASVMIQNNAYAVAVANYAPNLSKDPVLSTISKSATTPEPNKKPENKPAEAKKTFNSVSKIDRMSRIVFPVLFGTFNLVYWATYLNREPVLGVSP
Also: assay procedure not described here.

Compound	AC50 [1] [µM]	AC50 (Thromboxane A2 receptor) [µM]	AC50 (Melanocortin receptor 4) [µM]	other results
CCCCCCCCCCCCCCCC(=O)OC[C@H](COP(=O)([O-])OCC[N+](C)(C)C)OC(=O)CCCCCCCCCCCCCCC [COLFOSCERIL PALMITATE]	> 30	> 30		AC50 (Adenosine receptor A1): > 30 µM
COc1cccc2c1C(=O)c1c(O)c3c(c(O)c1C2=O)C[C@@](O)(C(=O)CO)C[C@@H]3O[C@H]1C[C@H](N)[C@H](O[C@@H]2CCCCO2)[C@H](C)O1 [PIRARUBICIN]	> 1	> 1		AC50 (Adenosine receptor A1): > 30 µM
O=C(c1ccccc1)c1ccc2n1CCC2C(=O)O (stereo not given) [KETOROLAC]			> 10	AC50 (Mu-type opioid receptor): 0.0013 µM
CCOC(=O)Nc1ccc(NCc2ccc(F)cc2)nc1N [FLUPIRTINE]				AC50 (Mu-type opioid receptor): > 30 µM
CCOc1ccccc1OCCN[C@H](C)Cc1ccc(OC)c(S(N)(=O)=O)c1 [TAMSULOSIN]			> 30	AC50 (Mu-type opioid receptor): 3.8 µM
CCN(CCO)CCCC(C)Nc1ccnc2cc(Cl)ccc12 (stereo not given) [HYDROXYCHLOROQUINE]			> 10	AC50 (Mu-type opioid receptor): > 30 µM
CC(C)C[C@H](NC(=O)[C@H](Cc1ccccc1)NC(=O)c1cnccn1)B(O)O [BORTEZOMIB]			> 30	AC50 (Mu-type opioid receptor): > 30 µM
O=C(O)[C@H](O)[C@@H](O)[C@H](O)[C@H](O)CO [GLUCONIC ACID]	> 30	> 30		
CC(C)(Oc1ccc(Cl)cc1)C(=O)NC(=O)NCN1CCOCC1 [PLAFIBRIDE]	> 30	> 30		
C#CCN(C)Cc1ccccc1 [PARGYLINE]		> 30		AC50 (Adenosine receptor A1): > 30 µM; AC50 [2]: > 30 µM; AC50 (Mu-type opioid receptor): > 30 µM
N=C(N)NCC1COc2ccccc2O1 (stereo not given) [GUANOXAN]	> 30	> 30		
CN(C)CCCC1(c2ccc(F)cc2)OCc2cc(C#N)ccc21 (stereo not given) [CITALOPRAM]		> 30	> 30	AC50 (Adenosine receptor A1): > 30 µM
N[C@@H](Cc1cc(I)c(Oc2cc(I)c(O)c(I)c2)c(I)c1)C(=O)O [LEVOTHYROXINE]				AC50 [2]: > 30 µM; AC50 (Mu-type opioid receptor): > 30 µM
N#Cc1ccnc(N2C(=O)CC[C@H]2C(=O)N(c2cncc(F)c2)[C@H](C(=O)NC2CC(F)(F)C2)c2ccccc2Cl)c1 [IVOSIDENIB]	> 30	> 30		
CC[N+](CC)(CCNC(=O)C(=O)NCC[N+](CC)(CC)Cc1ccccc1Cl)Cc1ccccc1Cl [AMBENONIUM]				AC50 (Mu-type opioid receptor): 4.3 µM
CC(C)Nc1cccnc1N1CCN(C(=O)c2cc3cc(NS(C)(=O)=O)ccc3[nH]2)CC1 [DELAVIRDINE]	> 30	> 30		
O=c1[nH]c2ccccc2n1CCN1CCN(c2cccc(C(F)(F)F)c2)CC1 [FLIBANSERIN]	10.1	> 30		
C[C@]12CCC(=O)C=C1CC[C@H]1[C@@H]3CC[C@](O)(C(=O)CO)[C@@]3(C)C[C@H](O)[C@@]12F [FLUDROCORTISONE]			> 30	
C[C@H](CS)C(=O)N1CCC[C@H]1C(=O)O [CAPTOPRIL]			> 30	
CN(C)CCN(Cc1ccccc1)c1ccccn1 [TRIPELENNAMINE]	> 30	> 30	> 10	

Compound	AC50 [1] [µM]	AC50 (Thromboxane A2 receptor) [µM]	AC50 (Melanocortin receptor 4) [µM]	other results
C=CC1=C(C(=O)O)N2C(=O)[C@@H](NC(=O)/C(=N\O)c3csc(N)n3)[C@H]2SC1			> 30	
CO[C@@]1(NC(=O)C(C(=O)O)c2ccc(O)cc2)C(=O)N2C(C(=O)O)=C(CSc3nnnn3C)CO[C@@H]21 (stereo not given in full) [MOXALACTAM]	> 30	> 30		AC50 (Adenosine receptor A1): > 30 µM
CN(C)CCOC(c1ccc(Cl)cc1)c1ccccn1 (stereo not given) [CARBINOXAMINE]				AC50 [2]: > 30 µM; AC50 (Mu-type opioid receptor): > 30 µM
CCOC(=O)[C@H](CCc1ccccc1)N[C@@H](C)C(=O)N1Cc2ccccc2C[C@H]1C(=O)O		> 30	> 30	
NCCCNCCSP(=O)(O)O [AMIFOSTINE]				AC50 (Mu-type opioid receptor): > 30 µM
CCCCCCCC/C=C\CCCCCCCC(=O)O [OLEIC ACID]	> 30	> 30		
C[C@]12CC[C@@H]3c4ccc(OC(=O)N(CCCl)CCCl)cc4CC[C@H]3[C@@H]1CC[C@@H]2OP(=O)(O)O [ESTRAMUSTINE PHOSPHATE]	> 30	> 30		
O=c1[nH]cc(F)c(=O)[nH]1 [FLUOROURACIL]		> 30		AC50 (Adenosine receptor A1): > 30 µM
O=NN(CCCl)C(=O)NC1CCCCC1 [LOMUSTINE]		> 30		
CCC1(c2ccccc2)C(=O)NCNC1=O [PRIMIDONE]			> 10	
O=C(O)COC(=O)Cc1ccccc1Nc1c(Cl)cccc1Cl [ACECLOFENAC]			> 30	
CC#CC(=O)N1CCC[C@H]1c1nc(-c2ccc(C(=O)Nc3ccccn3)cc2)c2c(N)nccn12 [ACALABRUTINIB]	> 30	> 30		AC50 (Adenosine receptor A1): > 30 µM
CC1=C(C/C=C(\C)CCC[C@H](C)CCC[C@H](C)CCCC(C)C)C(=O)c2ccccc2C1=O [PHYTONADIONE]	> 30	> 30		
CN(C)CCc1c[nH]c2ccc(CS(=O)(=O)N3CCCC3)cc12 [ALMOTRIPTAN]				AC50 [2]: > 30 µM; AC50 (Mu-type opioid receptor): > 30 µM
CNC1(c2ccccc2Cl)CCCCC1=O (stereo not given) [KETAMINE]		> 30		
NC(=O)C1(N2CCCCC2)CCN(CCCC(=O)c2ccc(F)cc2)CC1 [PIPAMPERONE]	> 30	> 30		
CC(C)NC[C@H](O)COc1ccc(O)cc1 [PRENALTEROL]	> 30	> 30		
CNC1(C)C2CCC(C2)C1(C)C (stereo not given) [MECAMYLAMINE]			> 10	
CN1CCC(N(Cc2cccs2)c2ccccc2)CC1 [THENALIDINE]	> 30	> 30		
Cc1cccc(C)c1NC(=O)c1cc(S(N)(=O)=O)c(Cl)cc1O [XIPAMIDE]	> 30	> 30		

Compound	AC50 [1] [µM]	AC50 (Thromboxane A2 receptor) [µM]	AC50 (Melanocortin receptor 4) [µM]	other results
CS(=O)(=O)Nc1ccc([N+](=O)[O-])cc1Oc1ccccc1 [NIMESULIDE]		> 30		AC50 [2]: > 30 µM; AC50 (Mu-type opioid receptor): > 30 µM
CC(=O)NC[C@H]1CN(c2ccc(N3CCOCC3)c(F)c2)C(=O)O1 [LINEZOLID]				AC50 (Mu-type opioid receptor): > 30 µM
CCN(CC)CCn1c(=O)c(Cc2ccc(OC)cc2)nc2ccccc21 [CAROVERINE]			> 30	AC50 (Mu-type opioid receptor): > 30 µM
CCCCCCO[C@@H](C)c1cccc(-c2csc(NC(=O)c3cc(Cl)c(/C=C(\C)C(=O)O)c(Cl)c3)n2)c1OC [LUSUTROMBOPAG]	> 30	> 30		AC50 (Adenosine receptor A1): > 30 µM
NC(=O)C1(N2CCCCC2)CCN(CCCN2c3ccccc3CCc3ccccc32)CC1 [CARPIPRAMINE]	22	24.6		
O=C(Cc1cccs1)N[C@@H]1C(=O)N2C(C(=O)[O-])=C(C[n+]3ccccc3)CS[C@H]12 [CEPHALORIDINE]		> 30		AC50 (Adenosine receptor A1): > 30 µM; AC50 [2]: > 30 µM; AC50 (Mu-type opioid receptor): > 30 µM
C[C@H](Cn1cnc2c(N)ncnc21)OCP(=O)(O)O [TENOFOVIR ANHYDROUS]			> 30	AC50 (Mu-type opioid receptor): > 30 µM
COC(=O)CCc1ccc(OCC(O)CNC(C)C)cc1 (stereo not given) [ESMOLOL]				AC50 (Mu-type opioid receptor): > 30 µM
C=CCOc1ccc(CC(=O)O)cc1Cl [ALCLOFENAC]	> 30	> 30		
OC[C@H]1NC[C@H](O)[C@@H](O)[C@H]1O	> 30	> 30		AC50 (Adenosine receptor A1): > 30 µM
Cc1ccc(C(C)C)c(O)c1 [THYMOL]	> 30	> 30		
NCCCCCC(=O)O [AMINOCAPROIC ACID]			> 10	
CC(C)NCC(O)COc1ccc(CC(N)=O)cc1 (stereo not given) [ATENOLOL]			> 30	
O=C(O)[C@@H](S)[C@@H](S)C(=O)O		> 30		AC50 (Adenosine receptor A1): > 30 µM
OCCOCCN1CCN(C(c2ccccc2)c2ccc(Cl)cc2)CC1 (stereo not given) [HYDROXYZINE]			> 30	
Cc1cc(C)cc(OCC2CNC(=O)O2)c1 (stereo not given) [METAXALONE]	> 30	> 30		
Nc1nnc(-c2cccc(Cl)c2Cl)c(N)n1 [LAMOTRIGINE]			> 30	
C[C@@H](CN1CC(=O)NC(=O)C1)N1CC(=O)NC(=O)C1 [DEXRAZOXANE]	> 30	> 30		
O=P1(N(CCCl)CCCl)NCCCO1 (stereo not given) [CYCLOPHOSPHAMIDE ANHYDROUS]		> 30		
CN1CCN(C(c2ccccc2)c2ccc(Cl)cc2)CC1 (stereo not given) [CHLORCYCLIZINE]	> 30	11.3		
